We go through 1 compound from patent US20240307415A1, “STEROID COMPOUND, AND PHARMACEUTICAL COMPOSITION THEREOF AND USE THEREOF” (JIANGSU SIMCERE PHARMACEUTICAL CO., LTD., priority 2021, published 2024).

Series [1] in a line: Metabolic stability in mouse liver microsomes. Type of series: in vitro ADME. Conditions: CD-1, mouse, pH 7.4, 1 μM compound, 0.5 mg/mL microsome, NADPH 1 mM, 37° C., read-out: Mouse liver microsome stability t1/2. From the text:
• 1. Human liver microsome (Corning 452117), beagle dog liver microsome (XENOTECH D1000), SD rat liver microsome (XENOTECH R1000), and CD-1 mouse liver microsome (XENOTECH M1000) • 2. Na2HPO4 (Tianjin Guangfu Fine Chemical Research Institute 20180130) • 3. KH2PO4 (Tianjin Guangfu Fine Chemical Research Institute 20180920) • 4. MgCl2 (Tianjin Guangfu Fine Chemical Research Institute 20191216) • 5. NADPH (Solarbio 1216C022) • 6. Positive control compound verapamil (Sigma MKBV4993V) • 7. AB Sciex API4000 liquid chromatography-mass spectrometry system
• 1. Preparation of 100 mM phosphate-buffered saline (PBS): 7.098 g Na2HPO4 was weighed. 500 mL pure water was added. The mixture was dissolved by sonication to give solution A. 3.400 g KH2PO4 was weighed. 250 mL pure water was added. […]
All data were calculated by Microsoft Excel software. The peak area was detected through an extracted ion chromatogram. The in vitro half-life (t1/2) of the compound was determined by linear fitting of the natural logarithm of compound elimination percentage over time.
In vitro half-life (t1/2) was calculated by the slope k: […]
The in vitro intrinsic clearance (in μL/min/mg protein) was calculated using the following formula: […]
For orientation: Liver microsomes are vesicles of endoplasmic reticulum, rich in cytochrome P450 enzymes.

Series [2] is described as follows: Plasma protein binding rate, human plasma (equilibrium dialysis). Type of series: in vitro ADME. Conditions: pH 7.4, equilibrium dialysis 6 h, 37° C. Here is the method:
The protein binding rates of the compound of the present invention in plasma of 5 species (humans, monkeys, dogs, rats, and mice) were determined using the following method.
• 1. Human plasma (BioIVT), monkey plasma (ADME-plasma-pooled monkey-05212020), beagle dog plasma (BioIVT), SD rat plasma (BioIVT), and CD-1 mouse plasma (BioIVT) • 2. Na2HPO4 (Sigma S5136-500G) • 3. NaH2PO4 (Sigma S3139-500G) • 4. NaCl (Sigma S5886-IKG) • 5. 96-well equilibrium dialysis plate (HTDialysis LLC, Gales Ferry, CT, HTD96B) and equilibrium dialysis membrane (MWCO 12-14K, 1101) • 6. Positive control compound warfarin • 7. ABI QTrap 5500 liquid chromatography-mass spectrometry system
• 1. […] Preparation of a dialysis membrane: the dialysis membrane was soaked in ultrapure water for 60 min to separate the membrane into two pieces, then soaked with 20% ethanol for 20 min, and finally soaked with dialysis buffer for 20 min. • 3. Preparation of plasma: the frozen plasma was quickly thawed at room temperature and then centrifuged at 3,220 g at 4° C. for 10 min to remove clots, and the supernatant was collected to a new centrifuge tube. The pH of the plasma was measured and recorded. The plasma with pH 7-8 was used. • 4. […]
The peak areas of the compound on the buffer side and the plasma side were measured. The plasma protein binding rate of the compound was calculated by the following formula: […]
Background: In equilibrium dialysis free small molecules cross a membrane that holds back macromolecules.

For the compound `C[C@]12C=CC(=O)C=C1CC[C@@H]1[C@@H]2[C@@H](O)C[C@@]2(C)[C@H]1C[C@H]1O[C@@H](c3ccc(Cc4cc(N)c5c(c4)CCO5)cc3)O[C@]12C(=O)CO` [Compound 009, (6aR,6bS,7S,8aS,8bS,10R,11aR,12aS,12bS)-10-(4-((7-amino-2,3-dihydrobenzofuran-5-yl)methyl)phenyl)-7-hydroxy-8b-(2-hydroxyacetyl)-6a,8a-dimethyl-6a,6b,7,8,8a,8b,11a,12,12a,12b-decahydro-1H-naphtho[2′,1′:4,5]indeno[1,2-d][1,3]dioxolan-4(2H)-one], in series [1], the half-life at 1 μM was 17.3 min. Besides, in series [2], the fraction unbound (commonly the share of the substance not bound to proteins or other matrix) at 6 h, 1 μM is 0.002.
